# Key:
# [1] = molecular target: T1, PPARG ligand-binding domain - NCoR/NCOR1 corepressor peptide (Homo sapiens, UniProt P37231); test: TR-FRET corepressor assay, NCoR/NCOR1 peptide; type: biochemical; conditions: data not shown
# T1 construct: purchased ThermoFisher Scientific
# T1 sequence (P37231 238-503 limits assumed): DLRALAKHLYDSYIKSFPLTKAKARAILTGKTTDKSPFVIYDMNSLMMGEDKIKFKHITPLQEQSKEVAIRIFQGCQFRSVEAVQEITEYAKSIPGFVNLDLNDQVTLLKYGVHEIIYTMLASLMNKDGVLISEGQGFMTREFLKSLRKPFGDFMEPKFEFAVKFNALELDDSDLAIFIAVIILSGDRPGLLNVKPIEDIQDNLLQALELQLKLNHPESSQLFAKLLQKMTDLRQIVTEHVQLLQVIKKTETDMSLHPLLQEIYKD
# Procedure: To evaluate inverse-agonism, a TR-FRET PPARG co-repressor assay (ThermoFisher) that measures recruitment of a fluorescent NCOR1 or NCOR2 corepressor peptide to the PPARG ligand-binding domain was used (ThermoFisher).
# In addition to the PPARG-NCOR2 interaction assay described above, interactions between PPARG and a peptide from the corepressor NCOR1 were measured.
# [2] = tested on: PPARG-activated bladder cancer cell lines; test: Proliferation assays in PPARG-activated bladder cancer cell lines; type: cell-based, human; conditions: 100 nM-500 nM
# Procedure: A panel of bladder cancer cell lines with PPARG modulators in colony formation assays was then tested (FIG. 10), kinetic proliferation assays (IncuCyte Zoom; Essen Bioscience) using cell lines treated with a single concentration of compound (100 nM-500 nM), and end-point dose-response assays (CellTiter Glo or CyQuant).
# This assay was expanded to include an additional 8 representative bladder cancer cell lines, including cell lines with PPARG amplification, RXRA p.S427F mutation, activated gene signature, and control cell lines with low level expression of PPARG and target genes. […] Representative data for the UM-UC-9 cell line are shown in FIG. 6B, and is tabulated for the tested bladder cancer cell lines in Table 1. […] This significant (P<0.01) preferential sensitivity to PPARG inverse-agonists, but not antagonists, is maintained across all of the PPARG-activated cell lines in the panel, including the RXRA p.S427F cell line, HT-1197 (41), the PPARG-amplified cell lines, 5637 and UM-UC-9, and the PPARG activation gene signature cell lines Cal29, UM-UC-1, and RT112/84 (FIG. 12). […] Similar results were obtained with these cell lines in parallel studies using clonogenic assays to quantify colony-forming ability (FIG. 10).
# Proliferation Assays: To enable cell-counting experiments, cell lines were transduced with a lentiviral vector encoding nuclear-targeted GFP, TagGFP2-H2B (Evrogen), and stable pools generated following selection for puromycin resistance. Cell lines were maintained for at least 7 days following selection prior to expansion and seeding into 96- or 384-well plates for further analysis. For kinetic proliferation assays, 96-well plates (n 1% 4 per condition) were imaged and counted every two hours using IncuCyte Zoom (Essen BioScience). Media and compounds were replaced approximately every 3-4 days. For endpoint assays to measure dose-response, cells were plated in 384-well plates, dosed with compound, and upon reaching approximately 70% to 90% confluence in control wells, cells were either counted using fluorescence imaging (Incu-Cyte Zoom) or incubated with CyQuant (Thermo Fisher) at the indicated time and plates were read with a fluorescent plate reader.
# FABP4 expression = test: Immunoblot of FABP4 in bladder cancer cell lines; type: cell-based, human; conditions: panel of bladder cancer cell lines
# Procedure: Western Blot Analysis: Western blots were performed using standard protocols with semi-dry transfer Trans-Blot® SD (Bio-Rad Hercules, CA), Li-Cor Odyssey Blocking buffer, and imaging with LiCor Odyssey Imaging System (LI-COR Lincoln, NE). Briefly, cells were grown in 6-well plates and harvested using Complete Lysis-M with protease and phosphatase inhibitors (Roche Applied Science). Western blot analyses were performed using standard protocols with semi-dry transfer Trans-Blot SD (Bio-Rad), LI-COR Odyssey Blocking buffer, and imaging with LI-COR Odyssey Imaging System (LI-COR). The anti-PPARG C26H12, anti-PPARG 81B8, anti-FABP4 D25B3, and anti-CEACAM5 CB30 antibodies were obtained from Cell Signaling Technology. The anti-ACSL5 ab57210 and anti-HMCGS2 EPR8642 antibodies were obtained from Abcam. The anti-VCL (vinculin) V9264 antibody was obtained from Sigma-Aldrich. All primary antibodies were tested at 1:1,000 dilutions, with the exception of anti-VCL, which was tested at a 1:5,000 dilution. Secondary goat anti-mouse 926-68020, and goat-anti-rabbit 926-32211 antibodies were obtained from LI-COR Biosciences and used at 1:15,000 dilutions.
# [3] = tested on: PPARG target gene expression in UM-UC-9 cells; test: RNA sequencing of UM-UC-9 cells after 7 days dosing; type: cell-based, human; conditions: 500 nmol/L
# Procedure: Next, the effects of long-term dosing on the transcriptional profile of the PPARG-amplified cell line, UMUC-9, were evaluated. Briefly, UM-UC-9 cells were treated for 7 days with various PPARG modulators dosed at 500 nmol/L and gene expression was analyzed using RNA sequencing. […] Genes that were more abundantly expressed upon treatment with inverse-agonists included ALPP, SPINK4, and ALDH1A3 (FIG. 5). […] In summary, the in vitro pharmacological properties of known PPARG modulators have been characterized and two distinct chemotypes with bona-fide inverse-agonist activity in PPARG-activated bladder cancer cells were identified.
# RNAseq analysis: RNA was isolated using RNEasy (Qiagen) and an RNAseq library was prepared using NEBNext Ultra Directional RNA Library Prep Kit for Illumina and NEBNext Multiplex Oligos for Illumina (New England BioLabs). RNAseq sequencing was performed using an Illumina MiSeq instrument according to the manufacturers protocol. Sequence data was analyzed using Firehose (Broad Institute, Cambridge MA) to map transcripts and calculate RPKM (SW780 cDNA expression) or TPM (UM-UC-9).
# For UM-UC-9 RNAseq experiment, the resulting reads were used to calculate transcript abundance in units of TPM (transcripts per million) (18), which were then adjusted using TMM normalization (19) for comparison. […]
smiles,measurement,setting,value
O=C(Nc1ccccc1)c1cc([N+](=O)[O-])ccc1Cl [GW9662],induced signal,[1],2.5 fold
same,sensitivity of cell lines,[2],not sensitive
same,expression of FABP4,FABP4 expression,not
same,hierarchical clustering of gene expression signatures,[3],cluster with vehicle-treated controls
